Laboratory results as given in patent publication US4935431A, “Substituted 7-amino-thienopyridine derivatives as gastric acid secretion inhibitors” (SmithKline Beckman Intercredit B.V., priority 1988, dated 1990).
Where a name gives a salt, the structure may show the parent alone.

What was measured:
H^+ K^+ ATPase = molecular target: T1, H^+ K^+ ATPase (Sus scrofa, UniProt P19156); test: K^+ -stimulated ATPase activity in lyophilised gastric vesicles (H/K-ATPase); type: biochemical; conditions: lyophilised gastric vesicles from pig fundic mucosa, 37° C., pH 7.0, 30 minutes
T1 construct: Lyophilised gastric vesicles were prepared from pig fundic mucosa; from tissue; host or cells: pig fundic mucosa (lyophilised gastric vesicles)
T1 sequence (P19156 2-1034 limits assumed): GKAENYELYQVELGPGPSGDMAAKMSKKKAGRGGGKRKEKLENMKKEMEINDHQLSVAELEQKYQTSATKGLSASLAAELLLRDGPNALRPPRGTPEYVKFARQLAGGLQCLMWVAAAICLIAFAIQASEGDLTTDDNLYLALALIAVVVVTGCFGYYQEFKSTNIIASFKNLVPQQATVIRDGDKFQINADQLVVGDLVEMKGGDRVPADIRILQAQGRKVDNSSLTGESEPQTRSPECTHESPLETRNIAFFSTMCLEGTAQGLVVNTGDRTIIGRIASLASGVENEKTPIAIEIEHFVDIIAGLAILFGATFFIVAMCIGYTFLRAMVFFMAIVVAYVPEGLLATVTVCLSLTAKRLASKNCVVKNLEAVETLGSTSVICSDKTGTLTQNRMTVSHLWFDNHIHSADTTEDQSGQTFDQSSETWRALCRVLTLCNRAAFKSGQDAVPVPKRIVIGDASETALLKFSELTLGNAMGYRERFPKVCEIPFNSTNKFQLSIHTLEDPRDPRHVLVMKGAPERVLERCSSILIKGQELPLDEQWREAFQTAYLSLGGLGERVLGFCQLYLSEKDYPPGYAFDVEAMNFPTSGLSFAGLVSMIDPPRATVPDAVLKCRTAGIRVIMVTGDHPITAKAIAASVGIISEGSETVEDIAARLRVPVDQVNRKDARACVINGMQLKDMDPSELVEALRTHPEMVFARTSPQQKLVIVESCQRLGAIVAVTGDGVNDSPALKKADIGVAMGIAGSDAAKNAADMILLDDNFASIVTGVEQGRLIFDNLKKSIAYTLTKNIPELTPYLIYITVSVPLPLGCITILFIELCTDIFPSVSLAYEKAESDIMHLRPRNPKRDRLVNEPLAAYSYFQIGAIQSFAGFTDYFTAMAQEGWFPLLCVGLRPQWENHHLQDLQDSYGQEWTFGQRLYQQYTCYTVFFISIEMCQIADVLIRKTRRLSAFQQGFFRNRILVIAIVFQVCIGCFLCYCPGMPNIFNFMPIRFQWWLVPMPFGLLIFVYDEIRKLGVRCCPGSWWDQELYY
T1 sequence (P18434 whole entry partner): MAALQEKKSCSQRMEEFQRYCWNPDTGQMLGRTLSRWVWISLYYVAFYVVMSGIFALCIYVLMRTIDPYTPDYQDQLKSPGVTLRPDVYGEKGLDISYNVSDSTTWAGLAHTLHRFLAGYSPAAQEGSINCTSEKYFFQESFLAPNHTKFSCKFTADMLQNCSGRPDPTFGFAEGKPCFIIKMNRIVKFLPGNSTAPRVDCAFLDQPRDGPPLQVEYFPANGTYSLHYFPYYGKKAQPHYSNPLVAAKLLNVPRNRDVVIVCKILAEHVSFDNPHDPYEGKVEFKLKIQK
Description: A. H^+ K^+ ATPase Activity The effects of a single high concentration (100 μM) of a compound of structure (I) on K^+ -stimulated ATPase activity in lyophilised gastric vesicles was determined. Preferred compounds of structure (I) were also tested over a range of concentrations to determine IC50 values. (i) Preparation of Lyonhilised Gastric Vesicles (H/K-ATPase) Lyophilised gastric vesicles were prepared from pig fundic mucosa after the method of Keeling et. al. (Biochem. Pharmacol., 34, 2967, 1985). (ii) K^+ -Stimulated ATPase Activity K^+ -stimulated ATPase activity was determined at 37° C. in the presence of the following: 10 mM Pipes/Tris buffer pH 7.0, 2 mM MgSO4, 1 mM KCl, 2 mM Na2 ATP and 3 μg protein/ml lyophilised gastric vesicles. After incubation for 30 minutes, the inorganic phosphate hydrolysed from ATP was determined by the method of Yoda and Hokin (Biochem. Biophys. Res. Commun. 40, 880, 1970). Compounds of structure (I) were dissolved in dimethylsulphoxide which up to the highest concentration used had no effect on K^+ -stimulated ATPase activity. The effect of the highest concentration of each compound of structure (I) on the recovery of a standard amount of inorganic phosphate was also determined.

[1] = system: pentagastrin stimulated gastric acid secretion; test: Rat Lumen Perfused Stomach (Pentagastrin Stimulated Gastric Acid Secretion); type: in vivo; conditions: for RAT GS % inhibition @ 10 μmol/kg: i.v.; for ED50: iv, read-out: RAT GS ED50
Text: B. Rat Lumen Perfused Stomach (Pentagastrin Stimulated Gastric Acid Secretion)
Using a modification of the procedure described by Ghosh & Schild (Br. J. Pharmacology, 13, 54, 1958), the compounds of the following examples were found on i.v. administration to cause an inhibition of pentagastrin stimulated gastric acid secretion as indicated in the following table. Results are given as % inhibition at 10 μmole/kg or ED50 (μM/kg): […]

| Compound | IC50 (H^+ K^+ ATPase) | RAT GS % inhibition @ 10 μmol/kg [1] | ED50 [1] |
| --- | --- | --- | --- |
| CCOC(=O)c1cnc2sccc2c1NCc1ccccc1 [Example 2, Ethyl 4-benzylaminothieno[2,3-b]pyridine-5-carboxylate] | 9710 nM | 13% |  |
| CCOC(=O)c1cnc2ccsc2c1NCc1ccccc1 [Example 4, Ethyl 7-benzylaminothieno[3,2-b]pyridine-6-carboxylate] | 4300 nM | 19% |  |
| CCOC(=O)c1cnc2c(C)csc2c1Nc1ccccc1C [Example 5, Ethyl 3-methyl-7-(2-methylphenylamino)thieno[3,2-b]-pyridine-6-carboxylate] |  |  | 11.2 µmol/kg |
| CCOC(=O)c1cnc2c(C)csc2c1NCc1ccccc1 [Example 6, Ethyl 3-methyl-7-benzylaminothieno[3,2-b]pyridine-6-carboxylate] |  | 31% |  |
| CCOC(=O)c1cnc2c(OC)csc2c1Nc1ccccc1C [Example 7, Ethyl 3-methoxy-7-(2-methylohenylamino)thieno[3,2-b] pyridine-6-carboxylate] | 21000 nM |  |  |
| CCCC(=O)c1cnc2c(OC)csc2c1Nc1ccccc1C [Example 9, 6-Butyryl-7-(2-methylphenylamino)-3-methoxythieno[3,2-b]pyridine] | 13000 nM |  |  |
| CCCC(=O)c1cnc2ccsc2c1Nc1ccc(F)cc1C [Example 12, 6-Butyryl-7-(4-fluoro-2-methylphenylamino)thieno[3,2-b]-pyridine] | 4300 nM | 38% |  |

Continued, in another order:

| IC50 (H^+ K^+ ATPase) | Compound | RAT GS % inhibition @ 10 μmol/kg [1] | ED50 [1] |
| --- | --- | --- | --- |
| 3000 nM | CCOC(=O)c1cnc2sccc2c1Nc1ccccc1C [Example 1, Ethyl 4-(2-methylohenylamino)thieno[2,3-b]pyridine-5-carboxylate] | 32% |  |
| 620 nM | CCOC(=O)c1cnc2ccsc2c1Nc1ccccc1C [Example 3, Ethyl 7-(2-methylphenylamino)thieno[3,2-b]pyridine-6-carboxylate] |  | 9.7 µmol/kg |
| 880 nM | CCCC(=O)c1cnc2ccsc2c1Nc1ccccc1C [Example 11, 6-Butyryl-7-(2-methylphenylamino)thieno[3,2-b]pyridine] | 55% |  |
| 1100 nM | CCCC(=O)c1cnc2ccsc2c1Nc1ccccc1CC [Example 13, 6-Butyryl-7-(2-ethylphenylamino)thieno[3,2-b]pyridine] |  | 3.32 µmol/kg |
| 1200 nM | CCCC(=O)c1cnc2ccsc2c1Nc1ccccc1CCC [Example 14, 6-Butyryl-7-(2-propylphenylamino)thieno[3,2-b]pyridine hydrochloride] |  |  |
| 860 nM | CCCC(=O)c1cnc2ccsc2c1Nc1ccccc1C(C)C [Example 15, 6-Butyryl-7-(2-isopropylphenylamino)thieno[3,2-b]pyridine] | 62% |  |
| 330 nM | CCCC(=O)c1cnc2ccsc2c1Nc1ccc(O)cc1C [Example 16, 6-Butyryl-(4-hydroxy-2-methylphenylamino)thieno[3,2-b]-pyridine] |  | 4.03 µmol/kg |
